Experimental data as given in PubChem BioAssay AID256 (DTP/NCI, 2004).
Toxic doses and inconclusive results are not listed.

Tested on: CD2F1 mice, L1210 leukemia ip, survival T/C
Test: NCI In Vivo Anticancer Drug Screen. Data for tumor model L1210 Leukemia (intraperitoneal) in CD2F1 (CDF1) mice
Conditions: higher = longer survival
Summary of the method: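 In this screen, transplantable tumors were grown in mice given either the compound or its vehicle. Results were expressed as the treated measurement relative to the control measurement.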

Q: What does the source list for CCN(CC)CCNc1ccc(CO)c2sc3ccccc3c(=O)c12?
A: T/C (endpoint: mean survival time, dose: 4.0 mg/kg/injection, schedule: Q03HX008 (ip), vehicle: saline): 101 % of control; T/C (endpoint: mean survival time, dose: 4.0 mg/kg/injection, schedule: Q03HX016 (ip), vehicle: saline): 104 % of control; T/C (endpoint: mean survival time, dose: 4.0 mg/kg/injection, schedule: Q03HX024 (ip), vehicle: saline): 110 % of control; T/C (endpoint: mean survival time, dose: 8.0 mg/kg/injection, schedule: Q03HX008 (ip), vehicle: saline): 112 % of control; T/C (endpoint: mean survival time, dose: 8.0 mg/kg/injection, schedule: Q03HX016 (ip), vehicle: saline): 108 % of control; T/C (endpoint: mean survival time, dose: 8.0 mg/kg/injection, schedule: Q03HX024 (ip), vehicle: saline): 117 % of control; T/C (endpoint: mean survival time, dose: 12.5 mg/kg/injection, schedule: Q01DX009 (ip), vehicle: Klucel (hydroxypropylcellulose) (HPC)): 106 % of control; T/C (endpoint: mean survival time, dose: 16.0 mg/kg/injection, schedule: Q03HX008 (ip), vehicle: saline): 105 % of control; T/C (endpoint: mean survival time, dose: 16.0 mg/kg/injection, schedule: Q03HX016 (ip), vehicle: saline): 110 % of control; T/C (endpoint: mean survival time, dose: 16.0 mg/kg/injection, schedule: Q03HX024 (ip), vehicle: saline): 151 % of control; T/C (endpoint: mean survival time, dose: 25.0 mg/kg/injection, schedule: Q01DX009 (ip), vehicle: Klucel (hydroxypropylcellulose) (HPC)): 102 % of control; T/C (endpoint: mean survival time, dose: 32.0 mg/kg/injection, schedule: Q01DX001 (ip), vehicle: saline): 107 % of control; T/C (endpoint: mean survival time, dose: 32.0 mg/kg/injection, schedule: Q01DX001 (sc), vehicle: saline): 116 % of control; T/C (endpoint: mean survival time, dose: 32.0 mg/kg/injection, schedule: Q03HX016 (ip), vehicle: saline): 117 % of control; T/C (endpoint: mean survival time, dose: 32.0 mg/kg/injection, schedule: Q03HX024 (ip), vehicle: saline): 184 % of control; T/C (endpoint: mean survival time, dose: 32.0 mg/kg/injection, schedule: Q04DX003 (ip), vehicle: saline): 116 % of control; T/C (endpoint: mean survival time, dose: 32.0 mg/kg/injection, schedule: Q08DX002 (ip), vehicle: saline): 114 % of control; T/C (endpoint: mean survival time, dose: 50.0 mg/kg/injection, schedule: Q01DX009 (ip), vehicle: Klucel (hydroxypropylcellulose) (HPC)): 120 % of control; T/C (endpoint: mean survival time, dose: 64.0 mg/kg/injection, schedule: Q01DX001 (ip), vehicle: saline): 108 % of control; T/C (endpoint: mean survival time, dose: 64.0 mg/kg/injection, schedule: Q01DX001 (sc), vehicle: saline): 111 % of control; T/C (endpoint: mean survival time, dose: 64.0 mg/kg/injection, schedule: Q01DX009 (ip), vehicle: saline): 174 % of control; T/C (endpoint: mean survival time, dose: 64.0 mg/kg/injection, schedule: Q01DX009 (oral), vehicle: saline): 121 % of control; T/C (endpoint: mean survival time, dose: 64.0 mg/kg/injection, schedule: Q01DX009 (sc), vehicle: saline): 156 % of control; T/C (endpoint: mean survival time, dose: 64.0 mg/kg/injection, schedule: Q03HX008 (ip), vehicle: saline): 150 % of control; T/C (endpoint: mean survival time, dose: 64.0 mg/kg/injection, schedule: Q03HX016 (ip), vehicle: saline): 151 % of control; T/C (endpoint: mean survival time, dose: 64.0 mg/kg/injection, schedule: Q03HX024 (ip), vehicle: saline): 94 % of control; T/C (endpoint: mean survival time, dose: 64.0 mg/kg/injection, schedule: Q08DX002 (ip), vehicle: saline): 113 % of control; T/C (endpoint: mean survival time, dose: 120.0 mg/kg/injection, schedule: Q01DX001 (ip), vehicle: acetone): 113 % of control; T/C (endpoint: mean survival time, dose: 120.0 mg/kg/injection, schedule: Q01DX009 (ip), vehicle: acetone): 118 % of control; T/C (endpoint: mean survival time, dose: 128.0 mg/kg/injection, schedule: Q01DX001 (ip), vehicle: saline): 110 % of control; T/C (endpoint: mean survival time, dose: 128.0 mg/kg/injection, schedule: Q01DX001 (sc), vehicle: saline): 115 % of control; T/C (endpoint: mean survival time, dose: 128.0 mg/kg/injection, schedule: Q01DX009 (ip), vehicle: saline): 101 % of control; T/C (endpoint: mean survival time, dose: 128.0 mg/kg/injection, schedule: Q01DX009 (sc), vehicle: saline): 111 % of control; T/C (endpoint: mean survival time, dose: 128.0 mg/kg/injection, schedule: Q08DX002 (ip), vehicle: saline): 111 % of control; T/C (endpoint: mean survival time, dose: 180.0 mg/kg/injection, schedule: Q01DX001 (ip), vehicle: acetone): 106 % of control; T/C (endpoint: mean survival time, dose: 256.0 mg/kg/injection, schedule: Q01DX001 (ip), vehicle: saline): 122 % of control; T/C (endpoint: mean survival time, dose: 256.0 mg/kg/injection, schedule: Q01DX001 (oral), vehicle: saline): 110 % of control; T/C (endpoint: mean survival time, dose: 256.0 mg/kg/injection, schedule: Q01DX001 (sc), vehicle: saline): 115 % of control; T/C (endpoint: mean survival time, dose: 256.0 mg/kg/injection, schedule: Q01DX009 (oral), vehicle: saline): 124 % of control; T/C (endpoint: mean survival time, dose: 400.0 mg/kg/injection, schedule: Q01DX001 (ip), vehicle: acetone): 120 % of control; T/C (endpoint: mean survival time, dose: 512.0 mg/kg/injection, schedule: Q01DX001 (oral), vehicle: saline): 117 % of control; T/C (endpoint: median survival time, dose: 10.0 mg/kg/injection, schedule: Q01DX009 (ip), vehicle: water): 102 % of control; T/C (endpoint: median survival time, dose: 40.0 mg/kg/injection, schedule: Q01DX009 (ip), vehicle: water): 150 % of control; T/C (endpoint: median survival time, dose: 160.0 mg/kg/injection, schedule: Q01DX009 (ip), vehicle: water): 103 % of control
